From PubChem BioAssay (NCI)
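How tested: cells in 96-well plates exposed to compound for 48 hours at five concentrations. The concentration for 50% growth inhibition is given as GI50. TGI marks complete inhibition of growth.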

Experiments:
Assay in all cases: DTP human tumour cell line panel, 48 h
786-0 renal = test system: 786-0 renal
A498 renal = test system: A498 renal
A549 NSCLC = test system: A549 NSCLC
ACHN renal = test system: ACHN renal
BT-549 breast = test system: BT-549 breast
CAKI-1 renal = test system: CAKI-1 renal
CCRF-CEM leukemia = test system: CCRF-CEM leukemia
COLO 205 colon = test system: COLO 205 colon
DU-145 prostate = test system: DU-145 prostate
EKVX NSCLC = test system: EKVX NSCLC
HCC-2998 colon = test system: HCC-2998 colon
HCT-116 colon = test system: HCT-116 colon
HCT-15 colon = test system: HCT-15 colon
HL-60(TB) leukemia = test system: HL-60(TB) leukemia
HOP-62 NSCLC = test system: HOP-62 NSCLC
HOP-92 NSCLC = test system: HOP-92 NSCLC
HS 578T breast = test system: HS 578T breast
HT29 colon = test system: HT29 colon
IGROV1 ovarian = test system: IGROV1 ovarian
K-562 leukemia = test system: K-562 leukemia
KM12 colon = test system: KM12 colon
LOX IMVI melanoma = test system: LOX IMVI melanoma
M14 melanoma = test system: M14 melanoma
MALME-3M melanoma = test system: MALME-3M melanoma
MCF7 breast = test system: MCF7 breast
MDA-MB-231 breast = test system: MDA-MB-231 breast
MDA-MB-435 = test system: MDA-MB-435
MOLT-4 leukemia = test system: MOLT-4 leukemia
NCI-H226 lung = test system: NCI-H226 lung
NCI-H23 lung = test system: NCI-H23 lung
NCI-H460 lung = test system: NCI-H460 lung
NCI-H522 lung = test system: NCI-H522 lung
NCI/ADR-RES ovarian = test system: NCI/ADR-RES ovarian
OVCAR-3 ovarian = test system: OVCAR-3 ovarian
OVCAR-4 ovarian = test system: OVCAR-4 ovarian
OVCAR-5 ovarian = test system: OVCAR-5 ovarian
OVCAR-8 ovarian = test system: OVCAR-8 ovarian
PC-3 prostate = test system: PC-3 prostate
RPMI-8226 leukemia = test system: RPMI-8226 leukemia
RXF 393 renal = test system: RXF 393 renal
SF-268 CNS = test system: SF-268 CNS
SF-295 CNS = test system: SF-295 CNS
SF-539 CNS = test system: SF-539 CNS
SK-MEL-2 melanoma = test system: SK-MEL-2 melanoma
SK-MEL-28 melanoma = test system: SK-MEL-28 melanoma
SK-MEL-5 melanoma = test system: SK-MEL-5 melanoma
SK-OV-3 ovarian = test system: SK-OV-3 ovarian
SN12C renal = test system: SN12C renal
SNB-19 CNS = test system: SNB-19 CNS
SNB-75 CNS = test system: SNB-75 CNS
SR leukemia = test system: SR leukemia
SW-620 colon = test system: SW-620 colon
T-47D breast = test system: T-47D breast
TK-10 renal = test system: TK-10 renal
U251 CNS = test system: U251 CNS
UACC-257 melanoma = test system: UACC-257 melanoma
UACC-62 melanoma = test system: UACC-62 melanoma
UO-31 renal = test system: UO-31 renal

## COC(=O)c1c2c(c(C)[n+]([O-])c1C)C(=O)C=C(NCc1ccc(F)c(F)c1)C2=O
786-0 renal
  GI50: 1350 nM
  TGI: 3580 nM
A498 renal
  GI50: 931 nM
  TGI: 2430 nM
A549 NSCLC
  GI50: 480 nM
  TGI: 2200 nM
ACHN renal
  GI50: 572 nM
  TGI: 2010 nM
BT-549 breast
  GI50: 1120 nM
  TGI: 2420 nM
CAKI-1 renal
  GI50: 313 nM
  TGI: 2130 nM
CCRF-CEM leukemia
  GI50: 409 nM
  TGI: 2470 nM
COLO 205 colon
  GI50: 257 nM
  TGI: 713 nM
DU-145 prostate
  GI50: 1060 nM
  TGI: 2280 nM
EKVX NSCLC
  GI50: 685 nM
  TGI: 2260 nM
HCC-2998 colon
  GI50: 359 nM
  TGI: 1430 nM
HCT-116 colon
  GI50: 256 nM
  TGI: 902 nM
HCT-15 colon
  GI50: 235 nM
  TGI: 1440 nM
HL-60(TB) leukemia
  GI50: 302 nM
  TGI: 1020 nM
HOP-62 NSCLC
  GI50: 860 nM
  TGI: 2500 nM
HOP-92 NSCLC
  GI50: 1560 nM
  TGI: 3610 nM
HS 578T breast
  GI50: 1890 nM
  TGI: 6170 nM
HT29 colon
  GI50: 304 nM
  TGI: 3170 nM
IGROV1 ovarian
  GI50: 360 nM
  TGI: 1680 nM
K-562 leukemia
  GI50: 74.5 nM
KM12 colon
  GI50: 280 nM
  TGI: 1710 nM
LOX IMVI melanoma
  GI50: 82.5 nM
  TGI: 1390 nM
M14 melanoma
  GI50: 274 nM
  TGI: 1380 nM
MALME-3M melanoma
  GI50: 139 nM
  TGI: 301 nM
MCF7 breast
  GI50: 255 nM
  TGI: 891 nM
MDA-MB-231 breast
  GI50: 251 nM
  TGI: 1830 nM
MDA-MB-435
  GI50: 131 nM
  TGI: 270 nM
MOLT-4 leukemia
  GI50: 588 nM
  TGI: 2120 nM
NCI-H226 lung
  GI50: 1440 nM
  TGI: 3270 nM
NCI-H23 lung
  GI50: 498 nM
  TGI: 2590 nM
NCI-H460 lung
  GI50: 450 nM
  TGI: 1790 nM
NCI-H522 lung
  GI50: 286 nM
  TGI: 1350 nM
NCI/ADR-RES ovarian
  GI50: 313 nM
  TGI: 1650 nM
OVCAR-3 ovarian
  GI50: 256 nM
  TGI: 766 nM
OVCAR-4 ovarian
  GI50: 177 nM
  TGI: 666 nM
OVCAR-5 ovarian
  GI50: 1140 nM
  TGI: 2490 nM
OVCAR-8 ovarian
  GI50: 291 nM
  TGI: 1130 nM
PC-3 prostate
  GI50: 279 nM
  TGI: 2420 nM
RPMI-8226 leukemia
  GI50: 783 nM
  TGI: 3230 nM
RXF 393 renal
  GI50: 1050 nM
  TGI: 2390 nM
SF-268 CNS
  GI50: 1070 nM
  TGI: 3320 nM
SF-295 CNS
  GI50: 437 nM
  TGI: 1590 nM
SF-539 CNS
  GI50: 487 nM
  TGI: 1670 nM
SK-MEL-2 melanoma
  GI50: 874 nM
  TGI: 2370 nM
SK-MEL-28 melanoma
  GI50: 840 nM
  TGI: 2430 nM
SK-MEL-5 melanoma
  GI50: 167 nM
  TGI: 308 nM
SK-OV-3 ovarian
  GI50: 1860 nM
  TGI: 4060 nM
SN12C renal
  GI50: 294 nM
  TGI: 1030 nM
SNB-19 CNS
  GI50: 1080 nM
  TGI: 2290 nM
SNB-75 CNS
  GI50: 1630 nM
  TGI: 2990 nM
SR leukemia
  GI50: 373 nM
  TGI: 4060 nM
SW-620 colon
  GI50: 254 nM
  TGI: 1360 nM
T-47D breast
  GI50: 127 nM
  TGI: 1020 nM
TK-10 renal
  GI50: 2060 nM
  TGI: 4820 nM
U251 CNS
  GI50: 458 nM
  TGI: 1720 nM
UACC-257 melanoma
  GI50: 225 nM
  TGI: 657 nM
UACC-62 melanoma
  GI50: 61.8 nM
  TGI: 612 nM
UO-31 renal
  GI50: 1110 nM
  TGI: 2350 nM
